{"source": "patent US10596092B2", "about": "“Deodorant composition and a method for preparing thereof” (priority 2017, dated 2020)", "test": "Neutralization of odoriferous acid by GC-FID", "format": "physicochemical", "experimental": "Hexamine, which is weakly basic in nature, was incubated with two commonly known odoriferous acids, i.e., 3-hydroxy-3-methyl-hexanoic acid (HMHA) and hexanoic acid, and the potential neutralization effect was studied by using a Gas Chromatograph with a Flame Ionization Detector (GC-FID). The chromatograms showing the neutralization of 3-hydroxy-3-methyl-hexanoic acid (HMHA) by sodium hydroxide and hexamine; and the neutralization of hexanoic acid by hexamine are shown in FIGS. 1 and 2, respectively."}
{"molecule": "C1N2CN3CN1CN(C2)C3", "note": "[hexamine]", "values": [{"measurement": "neutralization of odoriferous acid", "setting": "FIG. 1", "result": "capable of neutralizing the tested odoriferous acids"}, {"measurement": "neutralization of odoriferous acid", "setting": "FIG. 2", "result": "capable of neutralizing the tested odoriferous acids"}]}
